Data published in patent publication US5594103A, “Lantibiotics similar to nisin a” (Stichting Nederlands Instituut Voor Zuivelonderzoek (NIZO), priority 1991, dated 1997).
In brackets after ≈: the same amount, converted by molar mass.

Assays:
[1] = test system: Micrococcus flavus DSM 1719; assay: agar diffusion bioassay, M. flavus as indicator; assay type: cell-based
Procedure: (§1) The strain NIZO 22186 was isolated from an industrially obtained fermented milk product and identified as a L. lactis strain which ferments sucrose and produces an antimicrobial activity in the culture medium. This antimicrobial activity was determined by the agar diffusion bioassay method [Tramer and Fowler, J. Sci. Food Agric. 15 (1964) 522-528] using Micrococcus flavus DSM 1719 cultured in nutrient broth(Difco) as indicator. The supernatant of a culture of strain […] cultured on lactose M17 medium (Difco) containing 0-5% sucrose or glucose contained an antimicrobial activity which, compared with strain NIZO R5 [Galesloot and Pette, Neth. […] The absorption was monitored at 220 nm. […] The purified peptide material from strain […] and purified commercial nisin A were then hydrolysed for 24 hours in 6N HCl at 110° C. under nitrogen, concentrated by freeze-drying and, after dissolving in 0.2M Na citrate buffer of pH 2.2, analyzed in a LKB 4151 amino acid analyser. […]
(§2) The antimicrobial activity of nisin Z was compared with that of nisin A. In this case, and for further comparisons of the two lantibiotics, use was made of preparations which had been purified with the aid of RP-HPLC [see above] and for which the precise amounts of lantibiotic had been determined by determining the absorption at 220 nm. […]

solubility determination = assay type: physicochemical; conditions: for Solubility: 0.15M NaCl, room temperature
anti-nisin A antibodies = assay: competitive ELISA with anti-nisin A antibodies; assay type: binding
Text: Because the only difference between nisin Z and nisin A consists in the His27Asn substitution, the agreement between nisin Z and nisin A in respect of proteolytic sensitivity for these two enzymes is easily explainable. However, there are significant differences in physicochemical characteristics between the two abovementioned lantibiotics.

[2] = test system: Bacillus cereus (B.c.) strain 5227; assay: MIC bioassay from OD600nm inhibition curves; assay type: cell-based; conditions: 6 hours at 30° C., shaken; less than 1% increase in OD600nm
Procedure: (§3) The antimicrobial activities referred to above were measured in a bioassay using Micrococcus flavus (M. f.) strain […], Bacillus cereus (B.c.) strain 5227 and Strepococcus thermophilus (S.t.) strain 3218 as indicator strains. Minimum inhibitory concentration (MIC) values were determined in the following way. Cultures of indicator organisms grown overnight were diluted to OD600nm values or 0.05 (M.f.) or 0.025 (S.t. and B.c.) and divided into 10 5 ml portions in tubes. These tubes were inoculated with various amounts of nisin A or (mutant) nisin Z and incubated aerobically under the following conditions (M.f.: 8 hours at 30° C., shaken; S.t.: 3 hours at 37° C., without shaking; B.c.: 6 hours at 30° C., shaken). The OD600nm was then measured. Without the addition of nisin, the final OD600nm values were approximately 1.2 for M.f., 0.5 for S.t. and 0.8 for B.c. All experiments were carried out in triplicate. The MIC values were determined from the inhibition curves by calculating the minimum concentration of (mutant) nisin at which less than a 1% increase in the OD600nm occurred. The solubilities of nisin A, nisin Z and the mutants N27K-nisin Z and H31K-nisin Z were determined in the range between pH 6.0 and pH 7.5. It can be seen from the results that in this range nisin Z is 1.5 to 2 times more soluble than nisin A and that the nisin Z mutants having an additional positive charge are 5 to 10 times more soluble than nisin A (Table 2).

[3] = test system: Strepococcus thermophilus (S.t.) strain 3218; assay: MIC bioassay from OD600nm inhibition curves; assay type: cell-based; conditions: 3 hours at 37° C., without shaking; less than 1% increase in OD600nm
Procedure: as §3

[4] = test system: Micrococcus flavus (M. f.) strain DSM 1790; assay: MIC bioassay from OD600nm inhibition curves; assay type: cell-based; conditions: 8 hours at 30° C., shaken; less than 1% increase in OD600nm
Procedure: as §3

M. flavus DSM1719 = assay: minimum inhibitory concentration in exponentially growing cultures; assay type: cell-based; conditions: 37° C., nutrient broth
Text: (§4) The antimicrobial activity of nisin Z was compared with that of nisin A. In this case, and for further comparisons of the two lantibiotics, use was made of preparations which had been purified with the aid of RP-HPLC [see above] and for which the precise amounts of lantibiotic had been determined by determining the absorption at 220 nm. […] The difference comprised both the shape and the gradient of the dose/response curve which relates the amount of lantibiotic added and the diameter of the inhibition zones. In this context it should be pointed out that nisin concentrations which are used in practice are always higher than 2.5 μg/ml [Delves-Broughton, Food Manufacture, March 1987 pp. 63-64]. so that measurements at lower concentrations are more of academic than of practical interest. […] Milk Dairy J., 15 (1961) 127-132]. […] A differentiation between these is made by determining the minimum inhibitory concentrations (MIC) of nisin Z and nisin A which effected growth inhibition in the case of the microorganisms used. In this determination use was also made of M. flavus DSM1719 and S. thermophilus Rs cultured at 37° C. in, respectively, nutrient broth (Difco) and whey permeate containing 0.2% yeast extract. […]

S. thermophilus Rs [5] = assay: as above; assay type: cell-based; conditions: 37° C., whey permeate containing 0.2% yeast extract
Text: as §4

S. thermophilus Rs [6] = assay: agar diffusion bioassay, S. thermophilus Rs as indicator; assay type: cell-based; conditions: S. thermophilus Rs in TGV medium, versus nisin A
Procedure: as §1, §2

[7] = test system: Brevibacterium linens ATCC 9174; assay: inhibition spectrum, agar diffusion method; assay type: cell-based
Text: (§5) The antimicrobial activity of nisin Z was compared with that of nisin A. In this case, and for further comparisons of the two lantibiotics, use was made of preparations which had been purified with the aid of RP-HPLC [see above] and for which the precise amounts of lantibiotic had been determined by determining the absorption at 220 nm. […] The difference comprised both the shape and the gradient of the dose/response curve which relates the amount of lantibiotic added and the diameter of the inhibition zones. In this context it should be pointed out that nisin concentrations which are used in practice are always higher than 2.5 μg/ml [Delves-Broughton, Food Manufacture, March 1987 pp. 63-64]. so that measurements at lower concentrations are more of academic than of practical interest. […] Milk Dairy J., 15 (1961) 127-132]. […] A differentiation between these is made by determining the minimum inhibitory concentrations (MIC) of nisin Z and nisin A which effected growth inhibition in the case of the microorganisms used. In this determination use was also made of M. flavus DSM1719 and S. thermophilus Rs cultured at 37° C. in, respectively, nutrient broth (Difco) and whey permeate containing 0.2% yeast extract. Various amounts of nisin Z and nisin A were added to exponentially growing cultures of both organisms, after which the growth was compared with that of cultures to which no lantibiotic had been added.

[8] = test system: Bacillus cereus strains VC1, P7 and C5; assay: inhibition spectrum, agar diffusion method; assay type: cell-based
Text: as §5

[9] = test system: Lactococcus lactis subsp. cremoris BA3; assay: inhibition spectrum, agar diffusion method; assay type: cell-based
Text: as §5

[10] = test system: Clostridium tyrobutyricum BZ15; assay: inhibition spectrum, agar diffusion method; assay type: cell-based
Text: as §5

[11] = test system: Listeria monocytogenes strain 1, 4B, 13 and 669; assay: inhibition spectrum, agar diffusion method; assay type: cell-based
Text: as §5

trypsin = assay: sensitivity for proteolytic enzymes (RP-HPLC integrity and residual activity); assay type: physicochemical; conditions: nisin Z versus nisin A
Procedure: (§6) The sensitivity of the lantibiotics for some proteolytic enzymes has been described [Hurst, see above]. The sensitivity of nisin Z and nisin A for the proteolytic enzymes trypsin and chymotrypsin were determined by determining the integrity and the biological residual activity of the lantibiotics with the aid of, respectively, RP-HPLC and the agar diffusion assay [see above] after incubation with one of these enzymes.

chymotrypsin = assay: as above; assay type: physicochemical; conditions: nisin Z versus nisin A
Procedure: as §6

SMILES: C=C(NC(=O)[C@@H](NC(=O)[C@H](Cc1c[nH]cn1)NC(=O)[C@@H](NC(=O)[C@H](CO)NC(=O)[C@@H]1CS[C@@H](C)[C@H]2NC(=O)[C@H](C)NC(=O)[C@H](NC(=O)[C@H](CCCCN)NC(=O)[C@H](CCSC)NC(=O)[C@H](CC(N)=O)NC(=O)[C@@H]3CS[C@@H](C)[C@@H](NC(=O)[C@H](CCCCN)NC(=O)[C@@H]4CS[C@@H](C)[C@@H](NC(=O)[C@@H]5CSC[C@@H](NC(=O)/C(=C/C)NC(=O)[C@@H](N)[C@@H](C)CC)C(=O)N[C@@H]([C@@H](C)CC)C(=O)NC(=C)C(=O)N[C@@H](CC(C)C)C(=O)N5)C(=O)N5CCC[C@H]5C(=O)NCC(=O)N4)C(=O)NCC(=O)N[C@@H](C)C(=O)N[C@@H](CC(C)C)C(=O)N[C@@H](CCSC)C(=O)NCC(=O)N3)[C@H](C)SC[C@H](NC2=O)C(=O)N[C@@H](CC(N)=O)C(=O)N1)[C@@H](C)CC)C(C)C)C(=O)N[C@@H](CCCCN)C(=O)O [nisin Z]
- diffusion rate in an agar medium ([1]; compared with nisin A): higher diffusion rate
- zones of growth inhibition (diameter of halo) ([1]; concentrations above 0.03 μg/ml, versus same amount of nisin A): always found to be greater than those obtained with the same amount of nisin A
- solubility compared with nisin A (solubility determination; alkaline pH): greater than that of nisin A
- Solubility (solubility determination; pH 6.0): 2600 µg/mL (≈ 781 µM)
- Solubility (solubility determination; pH 6.5): 1500 µg/mL (≈ 450 µM)
- Solubility (solubility determination; pH 7.0): 800 µg/mL (≈ 240 µM)
- Solubility (solubility determination; pH 7.5): 600 µg/mL (≈ 180 µM)
- reaction in competitive ELISA (anti-nisin A antibodies): no reaction
- Minimum Inhibitory Concentration, B. cereus [2]: 130 µg/L
- Minimum Inhibitory Concentration, S. thermophilus [3]: 6 µg/L
- Minimum Inhibitory Concentration, Micrococcus flavus [4]: 11 µg/L
- minimum inhibitory concentration (MIC) (M. flavus DSM1719): 0.015 µg/mL (≈ 0.0045 µM)
- minimum inhibitory concentration (MIC) (S. thermophilus Rs [5]): 0.03 µg/mL (≈ 0.00901 µM)
- zones of growth inhibition (S. thermophilus Rs [6]): Comparable results
- antimicrobial activity (inhibition spectrum) [7]: comparably high antimicrobial activity
- antimicrobial activity (inhibition spectrum) [8]: comparably high antimicrobial activity
- antimicrobial activity (inhibition spectrum) [9]: comparably high antimicrobial activity
- antimicrobial activity (inhibition spectrum) [10]: comparably high antimicrobial activity
- antimicrobial activity (inhibition spectrum) [11]: comparably high antimicrobial activity
- sensitivity for trypsin (trypsin): comparable
- sensitivity for chymotrypsin (chymotrypsin): comparable
